Results as given in patent US20220135622A1, “ANTIBACTERIAL PEPTIDES AND METHODS OF USE” (priority 2019, published 2022).
≈ marks a conversion by molar mass, not a printed value. Square brackets hold non-standard residues; d marks the D form. Peptide text beside a SMILES is read from it. Bip = N[C@@H](Cc1ccc(-c2ccccc2)cc1)C(=O)O; hhPhe = N[C@@H](CCCc1ccccc1)C(=O)O; hPhe = N[C@@H](CCc1ccccc1)C(=O)O; Ahp(2) = CCCCC[C@H](N)C(=O)O; NMeM = CN[C@@H](CCSC)C(=O)O; Pip = O=C(O)[C@@H]1CCCCN1; NMeA = CN[C@@H](C)C(=O)O; Dap = NC[C@H](N)C(=O)O; Aib = CC(C)(N)C(=O)O

Test system: E. coli BW25113
Format: cell-based, Escherichia coli
Conditions: BW25113
Protocol: Bacterial growth conditions. LB or Mueller Hinton II cation-adjusted broth (MHB II, BBL 212322) was prepared according to manufacturer's instructions and supplemented with arabinose at 0.02% for overnight growth or at indicated concentrations in the description of the figures. Bacterial cultures were grown at 37° C. When appropriate, media was supplemented with kanamycin (50 μg/mL), carbenicillin (50 μg/mL), chloramphenicol (12.5 or 25 μg/mL), hygromycin (200 μg/mL), and/or gentamicin (10 μg/mL).
Peptide sensitivity and MIC assays. Lyophilized peptides (Smartox Biotechnology, CPC Scientific. ABclonal) were solubilized to 10 mM in Tris buffer, pH 8, prior to making a 2-fold dilution series in MHBII cation adjusted broth with highest final assay concentration of 400-800 μM. Bacteria were grown to log phase and added to final OD600˜0.001. The final EDTA concentration was 0.5 mM for E. coli strains and 0.125 mM for USA300. The final volume of 10 μL/well in a 384 well black, clear bottom plate (Corning) was spun <1 min at <250×g and then incubated at 37° C. After 4 h, an equal volume (10 μL) of BacTiter-Glo™ (Promega) was added to each well and luminescence was read after 5 min on an EnVision plate reader (PerkinElmer). To measure the minimal inhibitory concentrations (MICs), bacteria from fresh overnight plates or log phase cultures were diluted with or without EDTA and peptides as described above to final OD600˜0.0002. Plates were incubated at 37° C. for 20 h before measuring OD600 with an EnVision plate reader.

Molecule	MIC E. coli BW25113 [µM]
CSCC[C@H](NC(=O)[C@@H]1CCCCN1C(=O)[C@H](CCCNC(=N)N)NC(C)=O)C(=O)N[C@H](C(=O)N[C@@H](C)C(=O)N[C@@H](CCCNC(=N)N)C(=O)N[C@@H](CCCNC(=N)N)C(=O)N[C@@H](Cc1c[nH]c2ccccc12)C(=O)N[C@@H](CC(C)C)C(=O)N[C@@H](C)C(=O)N[C@@H](CCCCN)C(=O)N[C@@H](CCCNC(=N)N)C(=O)NCC(=O)N[C@@H](CC(C)C)C(N)=O)[C@@H](C)O [compound 221] (Ac-R[Pip]MTARRWLAKRGL-NH2)	200.0 (≈ 353 µg/mL)
CSCC[C@H](NC(=O)[C@@H]1CCCN1C(=O)[C@H](Cc1ccc(O)cc1)NC(C)=O)C(=O)N[C@@H](CCCNC(=N)N)C(=O)N[C@@H](Cc1ccccc1)C(=O)N[C@@H](CN)C(=O)N[C@@H](CCCNC(=N)N)C(=O)N[C@@H](Cc1ccccc1)C(=O)N[C@@H](CC(C)C)C(=O)N[C@@H](CCC(=O)O)C(=O)N[C@@H](CCCCN)C(=O)N[C@@H](Cc1c[nH]c2ccccc12)C(=O)NCC(=O)N[C@@H](CC(C)C)C(=O)N[C@@H](CC(C)C)C(=O)N[C@@H](CCCNC(=N)N)C(N)=O [compound 105] (Ac-YPMRF[Dap]RFLEKWGLLR-NH2)	50 (≈ 107 µg/mL)
CC(=O)N[C@@H](CCCNC(=N)N)C(=O)N1CCC[C@H]1C(=O)N[C@@H](CCc1ccccc1)C(=O)N[C@H](C(=O)N[C@@H](C)C(=O)N[C@@H](CCCNC(=N)N)C(=O)N[C@@H](CCCNC(=N)N)C(=O)N[C@@H](Cc1c[nH]c2ccccc12)C(=O)N[C@@H](CC(C)C)C(=O)N[C@@H](C)C(=O)N[C@@H](CCCCN)C(=O)N[C@@H](CCCNC(=N)N)C(=O)NCC(=O)N[C@@H](CC(C)C)C(N)=O)[C@@H](C)O [compound 222] (Ac-RP[hPhe]TARRWLAKRGL-NH2)	12.5 (≈ 22.3 µg/mL)
CSCC[C@H](NC(=O)[C@H](CN)NC(=O)[C@H](CCCc1ccccc1)NC(=O)[C@@H]1CCCN1C(=O)[C@H](CCCNC(=N)N)NC(C)=O)C(=O)N[C@@H](CCCNC(=N)N)C(=O)N[C@@H](CCCNC(=N)N)C(=O)N[C@@H](Cc1ccc(-c2ccccc2)cc1)C(=O)N[C@@H](CC(C)C)C(=O)N[C@@H](C)C(=O)N[C@@H](CCCCN)C(=O)N[C@@H](CCCNC(=N)N)C(=O)NCC(=O)N[C@@H](CC(C)C)C(N)=O [compound 226] (Ac-RP[hhPhe][Dap]MRR[Bip]LAKRGL-NH2)	25.0 (≈ 47 µg/mL)
CSCC[C@H](NC(=O)[C@H](CN)NC(=O)[C@H](Cc1ccc(O)cc1)NC(C)=O)C(=O)N1CCC[C@H]1C(=O)N[C@@H](Cc1ccccc1)C(=O)N[C@@H](CCCNC(=N)N)C(=O)N[C@@H](CCCNC(=N)N)C(=O)N[C@@H](Cc1ccccc1)C(=O)N[C@@H](CC(C)C)C(=O)N[C@@H](CCC(=O)O)C(=O)N[C@@H](CCCCN)C(=O)N[C@@H](Cc1c[nH]c2ccccc12)C(=O)NCC(=O)N[C@@H](CC(C)C)C(=O)N[C@@H](CC(C)C)C(=O)N[C@@H](CCCNC(=N)N)C(N)=O [compound 102] (Ac-Y[Dap]MPFRRFLEKWGLLR-NH2)	25.0 (≈ 53.5 µg/mL)
CSCC[C@H](NC(=O)[C@H](CN)NC(=O)[C@H](CCCc1ccccc1)NC(=O)[C@@H]1CCCN1C(=O)[C@H](CCCNC(=N)N)NC(C)=O)C(=O)N[C@@H](CCCNC(=N)N)C(=O)N[C@@H](CCCNC(=N)N)C(=O)N[C@@H](Cc1c[nH]c2ccccc12)C(=O)N[C@@H](CC(C)C)C(=O)N[C@@H](C)C(=O)N[C@@H](CCCCN)C(=O)N[C@@H](CCCNC(=N)N)C(=O)NCC(=O)N[C@@H](CC(C)C)C(N)=O [compound 227] (Ac-RP[hhPhe][Dap]MRRWLAKRGL-NH2)	50.0 (≈ 92.1 µg/mL)
CSCC[C@H](NC(=O)[C@H](CN)NC(=O)[C@H](CCSC)NC(=O)[C@@H]1CCCN1C(=O)[C@H](CCCNC(=N)N)NC(C)=O)C(=O)N[C@@H](CCCNC(=N)N)C(=O)N[C@@H](CCCNC(=N)N)C(=O)N[C@@H](Cc1ccc(-c2ccccc2)cc1)C(=O)N[C@@H](CC(C)C)C(=O)N[C@@H](C)C(=O)N[C@@H](CCCCN)C(=O)N[C@@H](Cc1c[nH]c2ccccc12)C(=O)NCC(=O)N[C@@H](CC(C)C)C(N)=O [compound 217] (Ac-RPM[Dap]MRR[Bip]LAKWGL-NH2)	12.5 (≈ 23.3 µg/mL)
CSCC[C@H](NC(=O)[C@@H]1CCCN1C(=O)[C@H](CCCNC(=N)N)NC(C)=O)C(=O)N[C@H](C(=O)NC(C)(C)C(=O)N[C@@H](CCCNC(=N)N)C(=O)N[C@@H](CCCNC(=N)N)C(=O)N[C@@H](Cc1c[nH]c2ccccc12)C(=O)N[C@@H](CC(C)C)C(=O)N[C@@H](C)C(=O)N[C@@H](CCCCN)C(=O)N[C@@H](CCCNC(=N)N)C(=O)NCC(=O)N[C@@H](CC(C)C)C(N)=O)[C@@H](C)O [compound 220] (Ac-RPMT[Aib]RRWLAKRGL-NH2)	100.0 (≈ 177 µg/mL)
CSCC[C@H](NC(=O)[C@H](CN)NC(=O)[C@H](CCSC)NC(=O)[C@@H]1CCCN1C(=O)[C@H](CCCNC(=N)N)NC(C)=O)C(=O)N[C@@H](CCCNC(=N)N)C(=O)N[C@@H](CCCNC(=N)N)C(=O)N[C@@H](Cc1ccc(-c2ccccc2)cc1)C(=O)N[C@@H](CC(C)C)C(=O)N[C@@H](C)C(=O)N[C@@H](CCCCN)C(=O)N[C@@H](CCCNC(=N)N)C(=O)NCC(=O)N[C@@H](CC(C)C)C(N)=O [compound 219] (Ac-RPM[Dap]MRR[Bip]LAKRGL-NH2)	25.0 (≈ 45.9 µg/mL)
Ac-RPMTWRRWLEKYGL-NH2 [compound 205]	200.0

Same assay, conditions: Table 8

Molecule	MIC E. coli BW25113 [µM]
CCCCC[C@H](NC(=O)[C@H](CCCCN)NC(=O)[C@H](C)NC(=O)[C@H](CC(C)C)NC(=O)[C@H](Cc1c[nH]c2ccccc12)NC(=O)[C@H](CCCNC(=N)N)NC(=O)[C@H](CCCNC(=N)N)NC(=O)[C@H](C)NC(=O)[C@@H](NC(=O)[C@H](CCSC)NC(=O)[C@@H]1CCCN1C(=O)[C@H](CCCNC(=N)N)NC(C)=O)[C@@H](C)O)C(=O)NCC(=O)N[C@@H](CC(C)C)C(N)=O [compound 224] (Ac-RPMTARRWLAK[Ahp(2)]GL-NH2)	100.0 (≈ 172 µg/mL)
Ac-YPFTFRRFLEKWGLLR-NH2 [compound 79]	200.0
Ac-RPMTWRRWLEKHGL-NH2 [compound 204]	200.0
CSCC[C@@H](C(=O)N[C@@H](CCCNC(=N)N)C(=O)N[C@@H](CCCNC(=N)N)C(=O)N[C@@H](Cc1ccccc1)C(=O)N[C@@H](CC(C)C)C(=O)N[C@@H](CCC(=O)O)C(=O)N[C@@H](CCCCN)C(=O)N[C@@H](Cc1c[nH]c2ccccc12)C(=O)NCC(=O)N[C@@H](CC(C)C)C(=O)N[C@@H](CC(C)C)C(=O)N[C@@H](CCCNC(=N)N)C(N)=O)N(C)C(=O)[C@H](CN)NC(=O)[C@H](CCSC)N(C)C(=O)[C@@H]1CCCN1C(=O)[C@H](Cc1ccc(O)cc1)NC(C)=O [compound 98] (Ac-YP[NMeM][Dap][NMeM]RRFLEKWGLLR-NH2)	25.0 (≈ 53.8 µg/mL)
CSCC[C@H](NC(=O)[C@H](CN)NC(=O)[C@H](CCSC)NC(=O)[C@@H]1CCCN1C(=O)[C@H](CCCNC(=N)N)NC(C)=O)C(=O)N[C@@H](CCCNC(=N)N)C(=O)N[C@@H](CCCNC(=N)N)C(=O)N[C@@H](Cc1ccc(-c2ccccc2)cc1)C(=O)N[C@@H](CC(C)C)C(=O)N[C@@H](CCC(=O)O)C(=O)N[C@@H](CCCCN)C(=O)N[C@@H](CCCNC(=N)N)C(=O)NCC(=O)N[C@@H](CC(C)C)C(N)=O [compound 218] (Ac-RPM[Dap]MRR[Bip]LEKRGL-NH2)	200.0 (≈ 379 µg/mL)
Ac-YPMTARRFLEKHGGL-NH2 [compound 101]	50.0
Ac-YPMKFRRFLEKWGLLR-NH2 [compound 107]	12.5
CSCC[C@@H](C(=O)N[C@@H](CN)C(=O)N[C@@H](Cc1ccccc1)C(=O)N[C@@H](CCCNC(=N)N)C(=O)N[C@@H](CCCNC(=N)N)C(=O)N[C@@H](Cc1ccccc1)C(=O)N[C@@H](CC(C)C)C(=O)N[C@@H](CCC(=O)O)C(=O)N[C@@H](CCCCN)C(=O)N[C@@H](Cc1c[nH]c2ccccc12)C(=O)NCC(=O)N[C@@H](CC(C)C)C(=O)N[C@@H](CC(C)C)C(=O)N[C@@H](CCCNC(=N)N)C(N)=O)N(C)C(=O)[C@@H]1CCCN1C(=O)[C@H](Cc1ccc(O)cc1)NC(C)=O [compound 95] (Ac-YP[NMeM][Dap]FRRFLEKWGLLR-NH2)	50.0 (≈ 108 µg/mL)
Ac-YPMRFRRFLEKWGLLR-NH2 [compound 108]	<12.5
CSCC[C@@H](C(=O)N[C@@H](CN)C(=O)N(C)[C@@H](C)C(=O)N[C@@H](CCCNC(=N)N)C(=O)N[C@@H](CCCNC(=N)N)C(=O)N[C@@H](Cc1ccccc1)C(=O)N[C@@H](CC(C)C)C(=O)N[C@@H](CCC(=O)O)C(=O)N[C@@H](CCCCN)C(=O)N[C@@H](Cc1c[nH]c2ccccc12)C(=O)NCC(=O)N[C@@H](CC(C)C)C(=O)N[C@@H](CC(C)C)C(=O)N[C@@H](CCCNC(=N)N)C(N)=O)N(C)C(=O)[C@@H]1CCCN1C(=O)[C@H](Cc1ccc(O)cc1)NC(C)=O [compound 97] (Ac-YP[NMeM][Dap][NMeA]RRFLEKWGLLR-NH2)	200.0 (≈ 418 µg/mL)
CSCC[C@H](NC(=O)[C@H](CN)NC(=O)[C@H](CCSC)N(C)C(=O)[C@@H]1CCCN1C(=O)[C@H](Cc1ccc(O)cc1)NC(C)=O)C(=O)N[C@@H](CCCNC(=N)N)C(=O)N[C@@H](CCCNC(=N)N)C(=O)N[C@@H](Cc1ccccc1)C(=O)N[C@@H](CC(C)C)C(=O)N[C@@H](CCC(=O)O)C(=O)N[C@@H](CCCCN)C(=O)N[C@@H](Cc1c[nH]c2ccccc12)C(=O)NCC(=O)N[C@@H](CC(C)C)C(=O)N[C@@H](CC(C)C)C(=O)N[C@@H](CCCNC(=N)N)C(N)=O [compound 96] (Ac-YP[NMeM][Dap]MRRFLEKWGLLR-NH2)	50.0 (≈ 107 µg/mL)
